What is called Km is the concentration of substrate that gives half-maximal velocity.

Results on four molecules are retold here after paper PMC2830364 (Antiviral research, 2009).

Holding throughout (format): biochemical
Test [1] addresses T1, puromycin-sensitive aminopeptidase (APP-S) (Homo sapiens, UniProt P55786). Briefly: chromogenic hydrolysis kinetics at […] nm with purified recombinant enzyme.
Test [2] deals with T1, puromycin-sensitive aminopeptidase (APP-S). As to the kind of experiment: inhibition of purified recombinant APP-S hydrolysis of Ala-pNA/Val-pNA.
Test [3] shares this target.

Each structure is given as a SMILES string. Where two headings read alike, the source gives them in different places.

T1 sequence (P55786 whole entry): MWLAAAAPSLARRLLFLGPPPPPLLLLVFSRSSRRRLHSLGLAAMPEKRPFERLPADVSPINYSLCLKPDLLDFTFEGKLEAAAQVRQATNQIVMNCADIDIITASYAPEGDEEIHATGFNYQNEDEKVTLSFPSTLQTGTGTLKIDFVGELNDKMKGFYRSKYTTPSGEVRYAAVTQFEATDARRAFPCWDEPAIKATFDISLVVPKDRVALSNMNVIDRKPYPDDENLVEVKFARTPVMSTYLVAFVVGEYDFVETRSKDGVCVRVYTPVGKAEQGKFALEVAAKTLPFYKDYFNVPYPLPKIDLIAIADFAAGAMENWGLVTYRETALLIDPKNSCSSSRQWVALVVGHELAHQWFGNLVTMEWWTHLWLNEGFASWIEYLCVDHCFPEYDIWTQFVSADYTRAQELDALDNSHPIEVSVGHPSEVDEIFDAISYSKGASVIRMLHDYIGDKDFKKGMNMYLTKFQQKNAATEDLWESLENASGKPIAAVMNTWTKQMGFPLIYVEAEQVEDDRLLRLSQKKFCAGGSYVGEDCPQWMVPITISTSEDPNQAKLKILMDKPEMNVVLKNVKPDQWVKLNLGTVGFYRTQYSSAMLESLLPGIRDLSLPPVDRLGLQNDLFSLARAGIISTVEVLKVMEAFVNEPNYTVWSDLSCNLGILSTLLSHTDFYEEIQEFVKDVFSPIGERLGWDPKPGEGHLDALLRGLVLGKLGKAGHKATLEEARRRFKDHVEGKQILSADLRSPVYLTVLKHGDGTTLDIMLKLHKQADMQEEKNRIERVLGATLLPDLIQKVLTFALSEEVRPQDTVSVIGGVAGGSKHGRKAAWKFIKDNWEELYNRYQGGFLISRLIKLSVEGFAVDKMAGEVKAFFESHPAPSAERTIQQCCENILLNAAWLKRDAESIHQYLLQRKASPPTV

Regarding `CC(C)[C@H](N)C(=O)Nc1ccc([N+](=O)[O-])cc1` [Val-pNA], in test [1], the Km turned out to be 280 ± 190 µM.

In the case of `CC(C)C[C@H](NC(=O)[C@@H](O)[C@H](N)Cc1ccccc1)C(=O)O` [bestatin], the “inhibition of purified recombinant APP-S hydrolysis of Ala-pNA/Val-pNA (405 nm)” value in test [2] is “APP-S hydrolysis of the model substrates was completely inhibited by the addition of bestatin”.

Regarding `COC(=O)[C@H](CO[P@@]1(=O)COC(Cn2ccc(N)nc2=O)CO1)NC(=O)[C@@H](N)C(C)C` (stereo partly drawn) [compound 2, Methyl (S)-2-((S)-2-Amino-3-methyl-butyrylamino)-3-[(S)-5-(4-amino-2-oxo-2H-pyrimidin-1-ylmethyl)-2-oxido-1,4,2-dioxaphosphinan-2-yloxy]propanoate], the Km in test [3] worked out at 850 ± 330 µM.

For the molecule `C[C@H](N)C(=O)Nc1ccc([N+](=O)[O-])cc1` [Ala-pNA], the Michaelis-Menten constant (Km) in test [1] turned out to be 510 ± 140 µM.
